This note sets out measurements from DBAASP.

The structures appear in SMILES notation. In brackets after ≈: the same amount, converted by molar mass. Several values for one entry are separate records, joined by “and”; a condition that tells them apart may be missing. Identical values can stand only once.

Some test systems named below: Escherichia coli K-12; Staphylococcus aureus; Aspergillus fumigatus; Sporothrix schenckii; Bacillus cereus; Vibrio cholerae; Escherichia coli MG1655.
Common to all, as to assay: ≥ marks a high value that may be exact or a test limit, other limits are often not marked, values filed in µg/mL are converted to µM
The test system of assay [1] is Staphylococcus aureus ATCC 25923.
In assay [2] the test system is Bacillus subtilis ATCC 6633.
Assay [3] has as its system Salmonella enterica subsp. enterica serovar Enteritidis BNCC 103134.
Assay [4] deals with Escherichia coli ATCC 25922.
Assay [5] concerns Bacillus megaterium NRRL B-4272.
In assay [6] the test system is Staphylococcus aureus ATCC 9144.
Assay [7] has as its system Escherichia coli ATCC 10536.
Assay [8] deals with Acinetobacter baumannii ATCC 19606.
Assay [9] relates to Pseudomonas aeruginosa ATCC 27853.
In assay [10] the test system is Cryptococcus neoformans var. grubii H99.
In assay [11] the test system is Staphylococcus aureus ATCC 43300.
The test system of assay [12] is Staphylococcus aureus JE2.
Assay [13] has as its system Candida albicans ATCC 90028.
In assay [14] the test system is Klebsiella pneumoniae ATCC 700603.
The test system of assay [15] is Pseudomonas aeruginosa NBRC 13275.
In assay [16] the test system is Escherichia coli NBRC 3972.
The test system of assay [17] is Klebsiella pneumoniae NBRC 3512.
Assay [18] concerns Escherichia coli DH5alpha.
Assay [19] relates to Staphylococcus epidermidis.
The test system of assay [20] is Proteus vulgaris NBRC 3045.
For assay [21], the system named is Staphylococcus aureus NBRC 13276.
In assay [22] the test system is Pseudomonas aeruginosa ATCC BAA-2111.
Assay [23] has as its system Salmonella enterica subsp. enterica NBRC 100797.
Assay [24] has as its system Pseudomonas aeruginosa ATCC BAA-427.
In assay [25] the test system is Candida parapsilosis ATCC 22019.
Assay [26] deals with Trichophyton mentagrophytes.
Assay [27] relates to Escherichia coli ATCC 9637.
Assay [28] deals with Klebsiella pneumoniae ATCC 27736.
Assay [29] concerns Enterococcus faecalis ATCC 29212.
Assay [30] relates to Staphylococcus aureus MTCC 9542.
Assay [31] has as its system Bacillus subtilis MTCC 14416.

The term MIC denotes the smallest concentration in the dilution series that meets the test's criterion for growth inhibition. A low value points to inhibition by little substance.

On to `CC(C)[C@H](NC(=O)[C@H](C)NC(=O)[C@H](CCCN=C(N)N)NC(=O)[C@H](CC(=O)O)NC(=O)[C@@H](NC(=O)[C@H](C)N)C(C)C)C(=O)O` [AVDRAV], for which the MIC in [1] is 100 µM (≈ 63 µg/mL); in [2] it was not below 150 µM; in assay [3], not below 150 µM; in assay [4], 100 µM (≈ 63 µg/mL).
As to `CC[C@H](C)[C@H](NC(=O)[C@H](Cc1ccccc1)NC(=O)[C@H](CCCCN)NC(=O)[C@H](CCCCN)NC(=O)[C@H](Cc1ccccc1)NC(=O)[C@H](CO)NC(=O)[C@H](Cc1cnc[nH]1)NC(=O)[C@H](CC(C)C)NC(=O)[C@H](C)NC(=O)[C@H](CCCCN)NC(=O)CNC(=O)CNC(=O)CN)C(=O)N[C@@H](CCCCN)C(=O)N[C@@H](C)C(=O)N[C@@H](Cc1ccccc1)C(=O)N[C@H](C(=O)NCC(=O)N[C@@H](CCC(=O)O)C(=O)N[C@H](C(=O)N[C@@H](CCSC)C(=O)N[C@@H](CC(N)=O)C(=O)N[C@@H](CO)C(N)=O)[C@@H](C)CC)C(C)C` [GGGKALHSFKKFIKAFVGEIMNS], the minimum inhibitory concentration (MIC) in assay [5] was 12 µM (≈ 29.6 µg/mL); in [6], not below 40 µM; in assay [2] it was 10 µM (≈ 24.7 µg/mL); in [7], 5 µM (≈ 12.3 µg/mL).
Consider `CC[C@H](C)[C@H](NC(=O)[C@@H](NC(=O)[C@H](CO)NC(=O)[C@H](C)NC(=O)[C@@H](NC(=O)[C@H](CCCN=C(N)N)NC(=O)[C@H](CCCN=C(N)N)NC(=O)[C@@H](NC(=O)[C@@H](NC(=O)[C@H](CC(=O)O)NC(=O)[C@H](Cc1ccccc1)NC(=O)[C@H](CC(C)C)NC(=O)CN)C(C)C)[C@@H](C)CC)C(C)C)C(C)C)C(=O)NCC(=O)NCC(=O)N[C@@H](CC(C)C)C(=O)O` [GLFDVIRRVASVIGGL], for which the MIC against Escherichia coli K-12 was 19.1 µM (≈ 32 µg/mL); in [8] it was 19.1 µM (≈ 32 µg/mL); in [9] it was more than 19.1 µM; in [10], 9.57 µM (≈ 16 µg/mL); in assay [11], 9.57 µM (≈ 16 µg/mL); in [12] it was 9.57 µM (≈ 16 µg/mL). Moreover, the MIC was 9.57 µM (≈ 16 µg/mL) in [13], more than 19.1 µM in [14] and 19.1 µM (≈ 32 µg/mL) in [4].
Regarding `CC(C)C[C@H](NC(=O)[C@H](CCCCN)NC(=O)CNC(=O)[C@H](C)NC(=O)[C@H](CCCCN)NC(=O)[C@H](CCCCN)NC(=O)[C@H](CC(C)C)NC(=O)[C@H](CC(C)C)NC(=O)[C@H](CCCCN)NC(=O)CNC(=O)[C@H](C)NC(=O)[C@H](CCCCN)NC(=O)[C@H](CCCCN)NC(=O)[C@H](CC(C)C)NC(=O)[C@H](CC(C)C)NC(=O)[C@@H](N)CCCCN)C(=O)N[C@@H](CC(C)C)C(=O)N[C@@H](CCCCN)C(=O)N[C@@H](CCCCN)C(=O)N[C@@H](C)C(=O)NCC(N)=O` [KLLKKAGKLLKKAGKLLKKAG], the MIC in assay [15] was 1.56 µM and 0.716 µM; in assay [16], 3.12 µM and 3.1 µM; in assay [17], 0.716 µM (≈ 1.6 µg/mL); in [18] it was 3.12 µM and 3.1 µM; in assay [19], 1.56 µM (≈ 3.48 µg/mL); in [20] it was not below 100 µM. Further, the minimal inhibitory concentration (MIC) in assay [21] came out at 5.59 µM (≈ 12.5 µg/mL); in the assay with Staphylococcus aureus, 12.5 µM (≈ 27.9 µg/mL); in assay [22] it was 1.39 µM (≈ 3.1 µg/mL); in assay [23], 1.6 µM (≈ 3.57 µg/mL).
Consider `CC(C)C[C@H](NC(=O)[C@H](CC(C)C)NC(=O)[C@H](CCCN=C(N)N)NC(=O)[C@H](CCCN=C(N)N)NC(=O)[C@H](CC(C)C)NC(=O)[C@H](Cc1c[nH]c2ccccc12)NC(=O)[C@H](CCCN=C(N)N)NC(=O)[C@H](CC(C)C)NC(=O)[C@H](CC(C)C)NC(=O)[C@H](CCCN=C(N)N)NC(=O)[C@H](CCCN=C(N)N)NC(=O)[C@@H](N)CC(C)C)C(=O)N[C@@H](CCCN=C(N)N)C(=O)N[C@@H](CCCN=C(N)N)C(=O)O` [LRRLLRWLRRLLRR], for which the MIC against Aspergillus fumigatus was 3.16 µM (≈ 6.25 µg/mL); in assay [1] it was 0.789 µM (≈ 1.56 µg/mL); in the assay on Sporothrix schenckii, 1.59 µM (≈ 3.15 µg/mL); in assay [24], 12.6 µM (≈ 25 µg/mL); in assay [25] it was 3.16 µM (≈ 6.25 µg/mL); in assay [26] it was 3.16 µM (≈ 6.25 µg/mL). The results for the MIC (in assay [27]; against Bacillus cereus; in assay [28]) were 12.6 µM (≈ 25 µg/mL), 1.59 µM (≈ 3.15 µg/mL) and 1.59 µM (≈ 3.15 µg/mL), respectively.
As to `CC[C@H](C)[C@@H]1NC(=O)[C@H](CCCCN)NC(=O)[C@@H](NC(=O)[C@H](CC(C)C)NC(=O)[C@@H](NC(=O)[C@H](CCC(N)=O)NC(=O)[C@@H]2CCCN2C(=O)[C@H](CC(C)C)NC(=O)[C@H](Cc2ccccc2)NC(=O)[C@H](CC(N)=O)NC(=O)[C@H](C)NC(=O)[C@H](C)NC(=O)[C@H](CC(C)C)NC(=O)CNC(=O)[C@H](C)NC(=O)[C@@H](NC(=O)[C@@H](N)CCCN=C(N)N)[C@@H](C)CC)[C@@H](C)CC)CSSC[C@@H](C(N)=O)NC(=O)[C@H](CCCCN)NC(=O)[C@H](CCCN=C(N)N)NC(=O)[C@H](C)NC1=O` [RIAGLAANFLPQILCKIARKC], the MIC against Vibrio cholerae was 5.44 µM (≈ 12.5 µg/mL); in [29] it was 21.7 µM (≈ 49.9 µg/mL); in assay [9], more than 43.5 µM; in assay [11] it was 10.9 µM (≈ 25 µg/mL); in assay [30], 10.9 µM (≈ 25 µg/mL); against Escherichia coli MG1655, 10.9 µM (≈ 25 µg/mL). In assay [31], this compound showed an MIC of 21.7 µM (≈ 49.9 µg/mL).
